Laboratory results taken from patent publication US20220306647A1, “NOVEL INDOLE-2-CARBOXAMIDES ACTIVE AGAINST THE HEPATITUS B VIRUS (HBV)” (AICURIS GMBH & CO. KG, priority 2019, published 2022).

What follows are compounds tested against T1, HBV core protein (C-terminal truncated core protein, 149 amino acids of the N-terminal assembly domain, BODIPY-FL labelled) (UniProt P03146) (assay: Biochemical capsid assembly assay (fluorescence quenching)). Conditions: assembly started with NaCl, fluorescence read after 6 min, read-out: Assembly activity.
T1 construct: fused on or other part: A single cysteine added after residue 149, at position 150; It carries the BODIPY-FL maleimide label
T1 sequence (P03146 whole entry, the tested form may be a part): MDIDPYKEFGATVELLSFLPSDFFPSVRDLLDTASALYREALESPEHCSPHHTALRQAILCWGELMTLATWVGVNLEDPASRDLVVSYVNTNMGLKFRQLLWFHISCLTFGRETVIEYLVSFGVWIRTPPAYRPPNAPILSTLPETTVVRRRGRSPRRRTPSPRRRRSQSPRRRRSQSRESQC
Procedure: The screening for assembly effector activity was done based on a fluorescence quenching assay published by Zlotnick et al. (2007). The C-terminal truncated core protein containing 149 amino acids of the N-terminal assembly domain fused to a unique cysteine residue at position 150 and was expressed in E. coli using the pET expression system (Merck Chemicals, Darmstadt). Purification of core dimer protein was performed using a sequence of size exclusion chromatography steps. In brief, the cell pellet from 1 L BL21 (DE3) Rosetta2 culture expressing the coding sequence of core protein cloned NdeI/XhoI into expression plasmid pET21b was treated for 1 h on ice with a native lysis buffer (Qproteome Bacterial Protein Prep Kit; Qiagen, Hilden). After a centrifugation step the supernatant was precipitated during 2 h stirring on ice with 0.23 g/ml of solid ammonium sulfate. Following further centrifugation the resulting pellet was resolved in buffer A (100 mM Tris, pH 7.5; 100 mM NaCl; 2 mM DTT) and was subsequently loaded onto a buffer A equilibrated CaptoCore 700 column (GE HealthCare, Frankfurt). The column flow through containing the assembled HBV capsid was dialyzed against buffer N (50 mM NaHCO3 pH 9.6; 5 mM DTT) before urea was added to a final concentration of 3M to dissociate the capsid into core dimers for 1.5 h on ice. The protein solution was then loaded onto a 1L Sephacryl S300 column. After elution with buffer N core dimer containing fractions were identified by SDS-PAGE and subsequently pooled and dialyzed against 50 mM HEPES pH 7.5; 5 mM DTT. To improve the assembly capacity of the purified core dimers a second round of assembly and disassembly starting with the addition of 5 M NaCl and including the size exclusion chromatography steps described above was performed. From the last chromatography step core dimer containing fractions were pooled and stored in aliquots at concentrations between 1.5 to 2.0 mg/ml at −80° C.
Immediately before labelling the core protein was reduced by adding freshly prepared DTT in a final concentration of 20 mM. After 40 min incubation on ice storage buffer and DTT was removed using a Sephadex G-25 column (GE HealthCare, Frankfurt) and 50 mM HEPES, pH 7.5. For labelling 1.6 mg/ml core protein was incubated at 4° C. and darkness overnight with BODIPY-FL maleimide (Invitrogen, Karlsruhe) in a final concentration of 1 mM. After labelling the free dye was removed by an additional desalting step using a Sephadex G-25 column. Labelled core dimers were stored in aliquots at 4° C. In the dimeric state the fluorescence signal of the labelled core protein is high and is quenched during the assembly of the core dimers to high molecular capsid structures. The screening assay was performed in black 384 well microtiter plates in a total assay volume of 10 μl using 50 mM HEPES pH 7.5 and 1.0 to 2.0 μM labelled core protein. Each screening compound was added in 8 different concentrations using a 0.5 log-unit serial dilution starting at a final concentration of 100 μM, 31.6 μM or 10 μM, In any case the DMSO concentration over the entire microtiter plate was 0.5%. The assembly reaction was started by the injection of NaCl to a final concentration of […] which induces the assembly process to approximately 25% of the maximal quenched signal. 6 min after starting the reaction the fluorescence signal was measured using a Clariostar plate reader (BMG Labtech, Ortenberg) with an excitation of 477 nm and an emission of 525 nm. As 100% and 0% assembly control HEPES buffer containing 2.5 M and 0 M NaCl was used. Experiments were performed thrice in triplicates. EC50 values were calculated by non-linear regression analysis using the Graph Pad Prism 6 software (GraphPad Software, La Jolla, USA).
For `O=C(O)c1ccc(C2(NC(=O)c3cnn4c3CN(C(=O)c3cc5ccccc5[nH]3)CC4)CC2)nc1` [Example 19, 6-{1-[5-(1H-indole-2-carbonyl)-4H,5H,6H,7H-pyrazolo[1,5-a]pyrazine-3-amido]cyclopropyl}pyridine-3-carboxylic acid], the IC50 was under 100 µM. For `O=C(O)c1cnc(C2(NC(=O)c3cnn4c3CN(C(=O)c3cc5ccccc5[nH]3)CC4)CC2)nc1` [Example 20, 2-{1-[5-(1H-indole-2-carbonyl)-4H,5H,6H,7H-pyrazolo[1,5-a]pyrazine-3-amido]cyclopropyl}pyrimidine-5-carboxylic acid], the IC50 was under 5 µM. Compound `O=C(O)c1cnc(C2(NC(=O)c3cnn4c3CN(C(=O)c3cc5ccccc5[nH]3)CC4)CC2)nc1` [Example 29, 2-{1-[5-(1H-indole-2-carbonyl)-4H,5H,6H,7H-pyrazolo[1,5-a]pyrazine-3-amido]cyclopropyl}pyrimidine-5-carboxylic acid] has an IC50 of under 100 µM. With `O=C(O)c1cccc(C2(NC(=O)c3cnn4c3CN(C(=O)c3cc5ccccc5[nH]3)CC4)CC2)c1` [Example 32, 3-{1-[5-(1H-indole-2-carbonyl)-4H,5H,6H,7H-pyrazolo[1,5-a]pyrazine-3-amido]cyclopropyl}benzoic acid] the IC50 was under 5 µM. In the case of `CN(C(=O)c1cnn2c1CN(C(=O)c1cc3ccccc3[nH]1)CC2)C1(c2nccc(C(=O)O)n2)CC1` [Example 36, 2-{1-[N-methyl-5-(1H-indole-2-carbonyl)-4H,5H,6H,7H-pyrazolo[1,5-a]pyrazine-3-amido]cyclopropyl}pyrimidine-4-carboxylic acid], the IC50 is reported as under 5 µM. `CN(C(=O)c1[nH]nc2c1CN(C(=O)c1cc3ccccc3[nH]1)CC2)C1(c2ccc(C(=O)O)cc2)CC1` [Example 44, 4-{1-[N-methyl-5-(1H-indole-2-carbonyl)-2H,4H,5H,6H,7H-pyrazolo[4,3-c]pyridine-3-amido]cyclopropyl}benzoic acid] showed an IC50 of under 5 µM. `CN(C(=O)c1[nH]nc2c1CN(C(=O)c1cc3ccccc3[nH]1)CC2)C1(c2ncc(C(=O)O)cn2)CC1` [Example 56, 2-{1-[N-methyl-5-(1H-indole-2-carbonyl)-2H,4H,5H,6H,7H-pyrazolo[4,3-c]pyridine-3-amido]cyclopropyl}pyrimidine-5-carboxylic acid] gave an IC50 of 5 to 10 µM. With `CN(C(=O)c1cnn2c1CN(C(=O)c1cc3c(F)c(F)ccc3[nH]1)CC2)C1(c2ncc(C(=O)O)cn2)CC1` [Example 58, 2-{1-[N-methyl-5-(4,5-difluoro-1H-indole-2-carbonyl)-4H,5H,6H,7H-pyrazolo[1,5-a]pyrazine-3-amido]cyclopropyl}pyrimidine-5-carboxylic acid] the IC50 was under 5 µM. In the case of `Cc1c(F)ccc2[nH]c(C(=O)N3CCn4ncc(C(=O)N(C)C5(c6ncc(C(=O)O)cn6)CC5)c4C3)cc12` [Example 59, 2-{1-[N-methyl-5-(5-fluoro-4-methyl-1H-indole-2-carbonyl)-4H,5H,6H,7H-pyrazolo[1,5-a]pyrazine-3-amido]cyclopropyl}pyrimidine-5-carboxylic acid], the IC50 is reported as under 5 µM. In the case of `CN(C(=O)c1[nH]nc2c1CN(C(=O)c1cc3c(F)c(F)ccc3[nH]1)CC2)C1(c2ccc(C(=O)O)cc2)CC1` [Example 65, 4-{1-[N-methyl-5-(4,5-difluoro-1H-indole-2-carbonyl)-2H,4H,5H,6H,7H-pyrazolo[4,3-c]pyridine-3-amido]cyclopropyl}benzoic acid], the IC50 is reported as under 5 µM. For `Cc1c(F)ccc2[nH]c(C(=O)N3CCc4n[nH]c(C(=O)N(C)C5(c6ccc(C(=O)O)cc6)CC5)c4C3)cc12` [Example 66, 4-{1-[N-methyl-5-(5-fluoro-4-methyl-1H-indole-2-carbonyl)-2H,4H,5H,6H,7H-pyrazolo[4,3-c]pyridine-3-amido]cyclopropyl}benzoic acid], the IC50 was under 5 µM. `Cc1cc(F)cc2[nH]c(C(=O)N3CCc4n[nH]c(C(=O)N(C)C5(c6ccc(C(=O)O)cc6)CC5)c4C3)cc12` [Example 67, 4-{1-[N-methyl-5-(6-fluoro-4-methyl-1H-indole-2-carbonyl)-2H,4H,5H,6H,7H-pyrazolo[4,3-c]pyridine-3-amido]cyclopropyl}benzoic acid] gave an IC50 of under 5 µM. In the case of `CN(C(=O)c1[nH]nc2c1CN(C(=O)c1cc3c(Cl)cccc3[nH]1)CC2)C1(c2ncc(C(=O)O)cn2)CC1` [Example 70, 2-{1-[N-methyl-5-(4-chloro-1H-indole-2-carbonyl)-2H,4H,5H,6H,7H-pyrazolo[4,3-c]pyridine-3-amido]cyclopropyl}pyrimidine-5-carboxylic acid], the IC50 is reported as under 5 µM. `CN(C(=O)c1[nH]nc2c1CN(C(=O)c1cc3c(F)c(F)ccc3[nH]1)CC2)C1(c2ncc(C(=O)O)cn2)CC1` [Example 71, 2-{1-[N-methyl-5-(4,5-difluoro-1H-indole-2-carbonyl)-2H,4H,5H,6H,7H-pyrazolo[4,3-c]pyridine-3-amido]cyclopropyl}pyrimidine-5-carboxylic acid] gave an IC50 of under 5 µM. Work on `Cc1c(F)ccc2[nH]c(C(=O)N3CCc4n[nH]c(C(=O)N(C)C5(c6ncc(C(=O)O)cn6)CC5)c4C3)cc12` [Example 72, 2-{1-[N-methyl-5-(5-fluoro-4-methyl-1H-indole-2-carbonyl)-2H,4H,5H,6H,7H-pyrazolo[4,3-c]pyridine-3-amido]cyclopropyl}pyrimidine-5-carboxylic acid] yielded an IC50 of under 5 µM. `Cc1cc(F)cc2[nH]c(C(=O)N3CCc4n[nH]c(C(=O)N(C)C5(c6ncc(C(=O)O)cn6)CC5)c4C3)cc12` [Example 73, 2-{1-[N-methyl-5-(6-fluoro-4-methyl-1H-indole-2-carbonyl)-2H,4H,5H,6H,7H-pyrazolo[4,3-c]pyridine-3-amido]cyclopropyl}pyrimidine-5-carboxylic acid] showed an IC50 of under 5 µM. `CN(C(=O)c1cnn2c1CN(C(=O)c1cc3ccccc3[nH]1)CC2)C1(COc2ccc(C(=O)O)cc2Cl)CC1` [Example 101, 3-chloro-4-({1-[N-methyl-5-(1H-indole-2-carbonyl)-4H,5H,6H,7H-pyrazolo[1,5-a]pyrazine-3-amido]cyclopropyl}methoxy)benzoic acid] gave an IC50 of under 5 µM. `O=C(c1cc2ccccc2[nH]1)N1CCc2noc(C(=O)N3CCC(O)CC34CC4)c2C1` (stereo not shown) [Example 102, 4-[5-(1H-indole-2-carbonyl)-4H,5H,6H,7H-[1,2]oxazolo[4,3-c]pyridine-3-carbonyl]-4-azaspiro[2.5]octan-7-ol] was tested, and the IC50 was under 5 µM. In the case of `C[C@@H](NC(=O)c1noc2c1CN(C(=O)c1cc3cc(F)c(F)cc3[nH]1)CC2)C(F)(F)F` [Example 111, 5-(5,6-difluoro-1H-indole-2-carbonyl)-N-[(2R)-1,1,1-trifluoropropan-2-yl]-4H,5H,6H,7H-[1,2]oxazolo[4,5-c]pyridine-3-carboxamide], the IC50 is reported as under 5 µM. With `C[C@@H](NC(=O)c1noc2c1CN(C(=O)c1cc3c(F)cc(F)cc3[nH]1)CC2)C(F)(F)F` [Example 112, 5-(4,6-difluoro-1H-indole-2-carbonyl)-N-[(2R)-1,1,1-trifluoropropan-2-yl]-4H,5H,6H,7H-[1,2]oxazolo[4,5-c]pyridine-3-carboxamide] the IC50 was under 5 µM. `C[C@@H](NC(=O)c1onc2c1CN(C(=O)c1cc3cc(F)c(F)cc3[nH]1)CC2)C(F)(F)F` [Example 115, 5-(5,6-difluoro-1H-indole-2-carbonyl)-N-[(2R)-1,1,1-trifluoropropan-2-yl]-4H,5H,6H,7H-[1,2]oxazolo[4,3-c]pyridine-3-carboxamide] showed an IC50 of under 5 µM. `C[C@@H](NC(=O)c1onc2c1CN(C(=O)c1cc3c(Cl)cccc3[nH]1)CC2)C(F)(F)F` [Example 118, 5-(4-chloro-1H-indole-2-carbonyl)-N-[(2R)-1,1,1-trifluoropropan-2-yl]-4H,5H,6H,7H-[1,2]oxazolo[4,3-c]pyridine-3-carboxamide] showed an IC50 of under 5 µM.
